Laboratory results as given in the supplement of paper PMC10627819.

Columns and labels:
S. pneumoniae D39V [1] = experiment: fitness (endpoint OD595 vs no drug) (fraction); higher = more growth
How it was run: (§1)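 Fitness expresses the optical density reached at the stationary-phase transition as a fraction of the robust mean of no-drug control wells. It is capped at 1. Measurements were OD595 every 30 min for 14 h at 37 °C after inoculation of 384-well plates at OD595 0.01 (30 µl, or 55 µl for S. pneumoniae), minus the first reading.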

S. aureus DSM 20231 [2] = experiment: as above
How it was run: as §1

S. aureus Newman [3] = experiment: as above
How it was run: as §1

S. pneumoniae D39V [4] = experiment: Bliss interaction score (quartile over a dose matrix) (fitness difference); higher = more antagonism (negative = synergy)
How it was run: (§2)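 The Bliss score subtracts expected fitness, the product of the single-drug fitness values, from observed fitness. Fitness is plate-normalised OD595 at entry into stationary phase, relative to the robust no-drug mean and capped at 1, with single-drug fitness inferred from combinations. Summaries are quartiles over technical, biological and donor/recipient replicates.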

S. aureus DSM 20231 [5] = experiment: as above
How it was run: as §2

S. aureus Newman [6] = experiment: as above
How it was run: as §2

B. subtilis 168 = experiment: as above
How it was run: as §2
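For Bliss interaction score (quartile over a dose matrix) in this document: first quartile when negative (synergy) and third quartile when positive (antagonism).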

CC1(C)S[C@@H]2[C@H](NC(=O)[C@H](N)c3ccc(O)cc3)C(=O)N2[C@H]1C(=O)O [Amoxicillin] + COc1ccc(C[C@H](N)C(=O)N[C@H]2[C@@H](O)[C@H](n3cnc4c(N(C)C)ncnc43)O[C@@H]2CO)cc1 [Puromycin]
Conditions | fitness
S. aureus DSM 20231 [2], first compound 0.0625 µg/mL, partner 0.39 µg/mL | 0.53
S. aureus DSM 20231 [2], first compound 0.0625 µg/mL, partner 0.78 µg/mL | 0.566
S. aureus DSM 20231 [2], first compound 0.0625 µg/mL, partner 1.56 µg/mL | 0.517
S. aureus DSM 20231 [2], first compound 0.125 µg/mL, partner 0.39 µg/mL | 0.397
S. aureus DSM 20231 [2], first compound 0.125 µg/mL, partner 0.78 µg/mL | 0.448
S. aureus DSM 20231 [2], first compound 0.25 µg/mL, partner 0.39 µg/mL | 0.199
S. aureus DSM 20231 [2], first compound 0.25 µg/mL, partner 0.78 µg/mL | 0.133
S. aureus DSM 20231 [2], first compound 0.25 µg/mL, partner 1.56 µg/mL | 0.0396
S. aureus Newman [3], first compound 0.0625 µg/mL, partner 0.39 µg/mL | 0.874
S. aureus Newman [3], first compound 0.0625 µg/mL, partner 0.78 µg/mL | 0.879
S. aureus Newman [3], first compound 0.0625 µg/mL, partner 1.56 µg/mL | 0.9
S. aureus Newman [3], first compound 0.125 µg/mL, partner 0.39 µg/mL | 0.904
S. aureus Newman [3], first compound 0.125 µg/mL, partner 0.78 µg/mL | 0.882
S. aureus Newman [3], first compound 0.125 µg/mL, partner 1.56 µg/mL | 0.899
S. aureus Newman [3], first compound 0.25 µg/mL, partner 0.39 µg/mL | 0.813
S. pneumoniae D39V [1], first compound 0.0008 µg/mL, partner 1 µg/mL | 0.965
S. pneumoniae D39V [1], first compound 0.0008 µg/mL, partner 2 µg/mL | 0.953
S. pneumoniae D39V [1], first compound 0.0008 µg/mL, partner 4 µg/mL | 0.88
S. pneumoniae D39V [1], first compound 0.0015 µg/mL, partner 1 µg/mL | ≥ 1
S. pneumoniae D39V [1], first compound 0.0015 µg/mL, partner 2 µg/mL | ≥ 1
S. pneumoniae D39V [1], first compound 0.0015 µg/mL, partner 4 µg/mL | 0.954
S. pneumoniae D39V [1], first compound 0.003 µg/mL, partner 1 µg/mL | ≥ 1
S. pneumoniae D39V [1], first compound 0.003 µg/mL, partner 2 µg/mL | 0.962
S. pneumoniae D39V [1], first compound 0.003 µg/mL, partner 4 µg/mL | 0.891

one replicate
Conditions | fitness
S. aureus DSM 20231 [2], first compound 0.0625 µg/mL, partner 3.12 µg/mL | 0.58
S. aureus DSM 20231 [2], first compound 0.0625 µg/mL, partner 6.24 µg/mL | 0.293
S. aureus DSM 20231 [2], first compound 0.125 µg/mL, partner 3.12 µg/mL | 0.417
S. aureus DSM 20231 [2], first compound 0.125 µg/mL, partner 6.24 µg/mL | 0.0695
S. aureus DSM 20231 [2], first compound 0.25 µg/mL, partner 3.12 µg/mL | 0.0126
S. aureus DSM 20231 [2], first compound 0.25 µg/mL, partner 6.24 µg/mL | 0.0079
S. aureus DSM 20231 [2], first compound 0.5 µg/mL, partner 0.39 µg/mL | 0.0239
S. aureus DSM 20231 [2], first compound 0.5 µg/mL, partner 0.78 µg/mL | 0.0124
S. aureus DSM 20231 [2], first compound 0.5 µg/mL, partner 1.56 µg/mL | 0.0417
S. pneumoniae D39V [1], first compound 0.006 µg/mL, partner 1 µg/mL | 0.617
S. pneumoniae D39V [1], first compound 0.006 µg/mL, partner 2 µg/mL | 0.685
S. pneumoniae D39V [1], first compound 0.006 µg/mL, partner 4 µg/mL | 0.612

Conditions | Bliss interaction score
B. subtilis 168 | 0.0627
S. aureus DSM 20231 [5] | 0.0606
S. aureus Newman [6] | 0.0595
S. pneumoniae D39V [4] | 0.277

CC1(C)S[C@@H]2[C@H](NC(=O)[C@H](N)c3ccc(O)cc3)C(=O)N2[C@H]1C(=O)O [Amoxicillin] + COc1cccc2c1C(=O)c1c(O)c3c(c(O)c1C2=O)C[C@@](O)(C(=O)CO)C[C@@H]3O[C@H]1C[C@H](N)[C@H](O)[C@H](C)O1 [Doxorubicin]
Conditions | fitness
S. aureus DSM 20231 [2], first compound 0.0625 µg/mL, partner 0.625 µg/mL | 0.541
S. aureus DSM 20231 [2], first compound 0.0625 µg/mL, partner 1.25 µg/mL | 0.511
S. aureus DSM 20231 [2], first compound 0.0625 µg/mL, partner 2.5 µg/mL | 0.493
S. aureus DSM 20231 [2], first compound 0.125 µg/mL, partner 0.625 µg/mL | 0.443
S. aureus DSM 20231 [2], first compound 0.125 µg/mL, partner 1.25 µg/mL | 0.423
S. aureus DSM 20231 [2], first compound 0.125 µg/mL, partner 2.5 µg/mL | 0.461
S. aureus DSM 20231 [2], first compound 0.25 µg/mL, partner 0.625 µg/mL | 0.187
S. aureus DSM 20231 [2], first compound 0.5 µg/mL, partner 0.625 µg/mL | 0.0064
S. aureus DSM 20231 [2], first compound 0.5 µg/mL, partner 1.25 µg/mL | 0
S. aureus DSM 20231 [2], first compound 0.5 µg/mL, partner 2.5 µg/mL | 0.012
S. aureus Newman [3], first compound 0.0625 µg/mL, partner 0.625 µg/mL | 0.756
S. aureus Newman [3], first compound 0.0625 µg/mL, partner 1.25 µg/mL | 0.738
S. aureus Newman [3], first compound 0.0625 µg/mL, partner 2.5 µg/mL | 0.686
S. aureus Newman [3], first compound 0.125 µg/mL, partner 0.625 µg/mL | 0.774
S. aureus Newman [3], first compound 0.125 µg/mL, partner 1.25 µg/mL | 0.742
S. aureus Newman [3], first compound 0.125 µg/mL, partner 2.5 µg/mL | 0.79
S. aureus Newman [3], first compound 0.25 µg/mL, partner 0.625 µg/mL | 0.729
S. aureus Newman [3], first compound 0.25 µg/mL, partner 1.25 µg/mL | 0.735
S. aureus Newman [3], first compound 0.25 µg/mL, partner 2.5 µg/mL | 0.712
S. pneumoniae D39V [1], first compound 0.0008 µg/mL, partner 0.25 µg/mL | 0.961
S. pneumoniae D39V [1], first compound 0.0008 µg/mL, partner 0.5 µg/mL | 0.941
S. pneumoniae D39V [1], first compound 0.0008 µg/mL, partner 1 µg/mL | 0.882
S. pneumoniae D39V [1], first compound 0.0015 µg/mL, partner 0.25 µg/mL | 0.892
S. pneumoniae D39V [1], first compound 0.0015 µg/mL, partner 0.5 µg/mL | 0.855
S. pneumoniae D39V [1], first compound 0.0015 µg/mL, partner 1 µg/mL | 0.921
S. pneumoniae D39V [1], first compound 0.003 µg/mL, partner 0.25 µg/mL | 0.838
S. pneumoniae D39V [1], first compound 0.003 µg/mL, partner 0.5 µg/mL | 0.837
S. pneumoniae D39V [1], first compound 0.003 µg/mL, partner 1 µg/mL | 0.788

S. pneumoniae D39V [1], first compound 0.006 µg/mL, one replicate
Conditions | fitness
partner 0.25 µg/mL | 0.317
partner 0.5 µg/mL | 0.314
partner 1 µg/mL | 0.399

Conditions | Bliss interaction score
B. subtilis 168 | 0.0583
S. aureus DSM 20231 [5] | 0.0943
S. aureus Newman [6] | -0.0449
S. pneumoniae D39V [4] | -0.071
